Experimental data as given in patent US6855312B1, “Hair care composition” (The Boots Company PLC, priority 1999, dated 2005).

Test system: Linoleic acid (model skin and hair lipid)
Assay: UVA/B-induced lipid peroxidation of linoleic acid, lipid hydroperoxides by colorimetric test (In Vitro Tests)
Format: biochemical
Settings: first series; compared to irradiated vehicle alone; broad spectrum UVA/B
Method: Linoleic acid (model skin and hair lipid) was incubated in the presence of various antioxidants and antoxidant combinations and was exposed to broad spectrum UVA/B to induce oxidation of the lipid. Following extraction of the lipid into methanol, the amount of lipid hydroperoxides (free radical generated damage) formed were measured with a specific colorimetric biochemical test. The degree of inhibition afforded by the antioxidants was thus measured and compared to irradiated vehicle controls.
The percentage inhibition of free radical mediated lipid peroxidation when compared to the vehicle alone are given below.
In a second series of experiments using antoxidants collected in a later season gave the following results.

O=C1O[C@H]([C@@H](O)CO)C([O-])=C1OP(=O)([O-])[O-].[Na+].[Na+].[Na+] [Sodium ascorbyl phosphate]
% inhibition of free radical mediated lipid peroxidation (observed): 21%
